According to patent US10681909B2, “Herbicidal triazoles” (FMC Corporation, priority 2014, dated 2020):

How the values were obtained:
sedge, umbrella = experiment: Test B flooded paddy test; assay type: in vivo, Cyperus difformis; conditions: 250 g ai/ha, applied to paddy water at 2-leaf stage, visual rating after 13 to 15 d, scale 0 (no effect) to 100 (complete control)
In short: (§1)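 Pots were flooded to 3 cm above the soil at treatment, and compounds were applied directly into the paddy water. That depth was held throughout. After 13 to 15 d in a greenhouse, plants were rated visually against untreated controls.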

oat, wild = experiment: Test C postemergence; assay type: in vivo, Avena fatua
From the text: (§2) Seeds of plant species selected from blackgrass (Alopecurus myosuroides), ryegrass, Italian (Italian ryegrass, Lolium multiflorum), wheat (winter wheat, Triticum aestivum), galium (catchweed bedstraw, Galium aparine), corn (Zea mays), crabgrass, large (large crabgrass, Digitaria sanguinalis), foxtail, giant, (giant foxtail, Setaria faberii), johnsongrass (Sorghum halepense), lambsquarters (Chenopodium album), morningglory (Ipomoea coccinea), nutsedge, yellow (yellow nutsedge, Cyperus esculentus), pigweed (Amaranthus retroflexus), ragweed (common ragweed, Ambrosia elatior), soybean (Glycine max), barnyardgrass (Echinochloa crus-galli), oilseed rape (Brassica napus), waterhemp (common waterhemp, Amaranthus rudis), and velvetleaf (Abutilon theophrasti) were planted into a blend of loam soil and sand and treated preemergence with test chemicals formulated in a non-phytotoxic solvent mixture which included a surfactant. At the same time, plants selected from these crop and weed species and also chickweed (common chickweed, Stellaria media), oat, wild (wild oat, Avena fatua), and kochia (Kochia scoparia), were planted in pots containing Sunshine Redi-Earth® planting medium comprising spaghnum peat moss, vermiculite, starter nutrients and dolomitic limestone and treated with postemergence applications of test chemicals formulated in the same manner. Plants ranged in height from 2 to 18 cm (1- to 4-leaf stage) for postemergence treatments. […] A dash (-) response means no test result.

oilseed rape = experiment: Test C postemergence; assay type: in vivo, Brassica napus
From the text: as §2

foxtail, giant [1] = experiment: Test C postemergence; assay type: in vivo, Setaria faberii
From the text: as §2

rice = experiment: Test B flooded paddy test; assay type: in vivo, Oryza sativa; conditions: 250 g ai/ha, applied to paddy water at 2-leaf stage, visual rating after 13 to 15 d, scale 0 (no effect) to 100 (complete control)
In short: as §1

ducksalad = experiment: Test B flooded paddy test; assay type: in vivo, Heteranthera limosa; conditions: 250 g ai/ha, applied to paddy water at 2-leaf stage, visual rating after 13 to 15 d, scale 0 (no effect) to 100 (complete control)
In short: as §1

nutsedge, yellow = experiment: Test C postemergence; assay type: in vivo, Cyperus esculentus
From the text: as §2

wheat (winter wheat) = experiment: Test C postemergence; assay type: in vivo, Triticum aestivum
From the text: as §2

corn [2] = experiment: Test A postemergence; assay type: in vivo, Zea mays; conditions: 0 to 100 scale (0 no effect, 100 complete control), approx. 10 d
In short: (§3)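 Test chemicals in a non-phytotoxic solvent with surfactant were applied as a directed soil spray preemergence to seeds sown in loam/sand. Postemergence sprays went to plants 2–10 cm tall at the one- to two-leaf stage. A dash means no result.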

lambsquarters = experiment: Test C postemergence; assay type: in vivo, Chenopodium album
From the text: as §2

pigweed [3] = experiment: Test A postemergence; assay type: in vivo, Amaranthus retroflexus; conditions: 0 to 100 scale (0 no effect, 100 complete control), approx. 10 d
In short: as §3

corn [4] = experiment: Test C postemergence; assay type: in vivo, Zea mays
From the text: as §2

pigweed [5] = experiment: Test C postemergence; assay type: in vivo, Amaranthus retroflexus
From the text: as §2

johnsongrass = experiment: Test C postemergence; assay type: in vivo, Sorghum halepense
From the text: as §2

chickweed = experiment: Test C postemergence; assay type: in vivo, Stellaria media
From the text: as §2

ryegrass, Italian = experiment: Test C postemergence; assay type: in vivo, Lolium multiflorum
From the text: as §2

ragweed = experiment: Test C postemergence; assay type: in vivo, Ambrosia elatior
From the text: as §2

galium = experiment: Test C postemergence; assay type: in vivo, Galium aparine
From the text: as §2

foxtail, giant [6] = experiment: Test A postemergence; assay type: in vivo, Setaria faberii; conditions: 0 to 100 scale (0 no effect, 100 complete control), approx. 10 d
In short: as §3

barnyardgrass [7] = experiment: Test A postemergence; assay type: in vivo, Echinochloa crus-galli; conditions: 0 to 100 scale (0 no effect, 100 complete control), approx. 10 d
In short: as §3

barnyardgrass [8] = experiment: Test B flooded paddy test; assay type: in vivo, Echinochloa crus-galli; conditions: 250 g ai/ha, applied to paddy water at 2-leaf stage, visual rating after 13 to 15 d, scale 0 (no effect) to 100 (complete control)
In short: as §1

FC(F)(F)COc1nc(-c2ccccc2)nn1Cc1ccnc(C(F)(F)F)c1 [Compound 24]
Plant response rating, Sedge, Umbrella, Flood (sedge, umbrella): 85
Plant response rating (scale of 0 to 100 where 0 is no effect and 100 is complete control) (oat, wild; 31 g ai/ha): 15
Plant response rating (scale of 0 to 100 where 0 is no effect and 100 is complete control) (oat, wild; 62 g ai/ha): 30
Plant response rating (scale of 0 to 100 where 0 is no effect and 100 is complete control) (oat, wild; 125 g ai/ha): 20
Plant response rating (scale of 0 to 100 where 0 is no effect and 100 is complete control) (oat, wild; 250 g ai/ha): 35
Plant response rating (scale of 0 to 100 where 0 is no effect and 100 is complete control) (oilseed rape; Oilsee Rape, 250 g ai/ha): 85
Plant response rating (scale of 0 to 100 where 0 is no effect and 100 is complete control) (oilseed rape; Oilseed Rape, 31 g ai/ha): 50
Plant response rating (scale of 0 to 100 where 0 is no effect and 100 is complete control) (oilseed rape; Oilseed Rape, 62 g ai/ha): 80
Plant response rating (scale of 0 to 100 where 0 is no effect and 100 is complete control) (oilseed rape; Oilseed Rape, 125 g ai/ha): 85
Plant response rating (scale of 0 to 100 where 0 is no effect and 100 is complete control) (foxtail, giant [1]; 31 g ai/ha): 15
Plant response rating (scale of 0 to 100 where 0 is no effect and 100 is complete control) (foxtail, giant [1]; 62 g ai/ha): 20
Plant response rating (scale of 0 to 100 where 0 is no effect and 100 is complete control) (foxtail, giant [1]; 125 g ai/ha): 20
Plant response rating (scale of 0 to 100 where 0 is no effect and 100 is complete control) (foxtail, giant [1]; 250 g ai/ha): 20
Plant response rating, Rice, Flood (rice): 0
Plant response rating, Ducksalad, Flood (ducksalad): 30
Plant response rating (scale of 0 to 100 where 0 is no effect and 100 is complete control) (nutsedge, yellow; 31 g ai/ha): 15
Plant response rating (scale of 0 to 100 where 0 is no effect and 100 is complete control) (nutsedge, yellow; 62 g ai/ha): 25
Plant response rating (scale of 0 to 100 where 0 is no effect and 100 is complete control) (nutsedge, yellow; 125 g ai/ha): 20
Plant response rating (scale of 0 to 100 where 0 is no effect and 100 is complete control) (nutsedge, yellow; 250 g ai/ha): 25
Plant response rating (scale of 0 to 100 where 0 is no effect and 100 is complete control) (wheat (winter wheat); 31 g ai/ha): 5
Plant response rating (scale of 0 to 100 where 0 is no effect and 100 is complete control) (wheat (winter wheat); 62 g ai/ha): 5
Plant response rating (scale of 0 to 100 where 0 is no effect and 100 is complete control) (wheat (winter wheat); 125 g ai/ha): 5
Plant response rating (scale of 0 to 100 where 0 is no effect and 100 is complete control) (wheat (winter wheat); 250 g ai/ha): 5
Plant response rating, Corn (corn [2]; 125 g ai/ha): 20
Plant response rating, Corn (corn [2]; 500 g ai/ha): 40
Plant response rating (scale of 0 to 100 where 0 is no effect and 100 is complete control) (lambsquarters; 31 g ai/ha): 100
Plant response rating (scale of 0 to 100 where 0 is no effect and 100 is complete control) (lambsquarters; 62 g ai/ha): 100
Plant response rating (scale of 0 to 100 where 0 is no effect and 100 is complete control) (lambsquarters; 125 g ai/ha): 100
Plant response rating (scale of 0 to 100 where 0 is no effect and 100 is complete control) (lambsquarters; 250 g ai/ha): 100
Plant response rating, Pigweed (pigweed [3]; 125 g ai/ha): 90
Plant response rating, Pigweed (pigweed [3]; 500 g ai/ha): 100
Plant response rating (scale of 0 to 100 where 0 is no effect and 100 is complete control) (corn [4]; 31 g ai/ha): 20
Plant response rating (scale of 0 to 100 where 0 is no effect and 100 is complete control) (corn [4]; 62 g ai/ha): 20
Plant response rating (scale of 0 to 100 where 0 is no effect and 100 is complete control) (corn [4]; 125 g ai/ha): 25
Plant response rating (scale of 0 to 100 where 0 is no effect and 100 is complete control) (corn [4]; 250 g ai/ha): 30
Plant response rating (scale of 0 to 100 where 0 is no effect and 100 is complete control) (pigweed [5]; 31 g ai/ha): 100
Plant response rating (scale of 0 to 100 where 0 is no effect and 100 is complete control) (pigweed [5]; 62 g ai/ha): 100
Plant response rating (scale of 0 to 100 where 0 is no effect and 100 is complete control) (pigweed [5]; 125 g ai/ha): 100
Plant response rating (scale of 0 to 100 where 0 is no effect and 100 is complete control) (pigweed [5]; 250 g ai/ha): 100
Plant response rating (scale of 0 to 100 where 0 is no effect and 100 is complete control) (johnsongrass; 31 g ai/ha): 10
Plant response rating (scale of 0 to 100 where 0 is no effect and 100 is complete control) (johnsongrass; 62 g ai/ha): 20
Plant response rating (scale of 0 to 100 where 0 is no effect and 100 is complete control) (johnsongrass; 125 g ai/ha): 10
Plant response rating (scale of 0 to 100 where 0 is no effect and 100 is complete control) (johnsongrass; 250 g ai/ha): 20
Plant response rating (scale of 0 to 100 where 0 is no effect and 100 is complete control) (chickweed; 31 g ai/ha): 55
Plant response rating (scale of 0 to 100 where 0 is no effect and 100 is complete control) (chickweed; 62 g ai/ha): 80
Plant response rating (scale of 0 to 100 where 0 is no effect and 100 is complete control) (chickweed; 125 g ai/ha): 65
Plant response rating (scale of 0 to 100 where 0 is no effect and 100 is complete control) (chickweed; 250 g ai/ha): 85
Plant response rating (scale of 0 to 100 where 0 is no effect and 100 is complete control) (ryegrass, Italian; 31 g ai/ha): 5
Plant response rating (scale of 0 to 100 where 0 is no effect and 100 is complete control) (ryegrass, Italian; 62 g ai/ha): 5
Plant response rating (scale of 0 to 100 where 0 is no effect and 100 is complete control) (ryegrass, Italian; 125 g ai/ha): 20
Plant response rating (scale of 0 to 100 where 0 is no effect and 100 is complete control) (ryegrass, Italian; 250 g ai/ha): 25
Plant response rating (scale of 0 to 100 where 0 is no effect and 100 is complete control) (ragweed; 31 g ai/ha): 65
Plant response rating (scale of 0 to 100 where 0 is no effect and 100 is complete control) (ragweed; 62 g ai/ha): 75
Plant response rating (scale of 0 to 100 where 0 is no effect and 100 is complete control) (ragweed; 125 g ai/ha): 75
Plant response rating (scale of 0 to 100 where 0 is no effect and 100 is complete control) (ragweed; 250 g ai/ha): 75
Plant response rating (scale of 0 to 100 where 0 is no effect and 100 is complete control) (galium; 31 g ai/ha): 70
Plant response rating (scale of 0 to 100 where 0 is no effect and 100 is complete control) (galium; 62 g ai/ha): 80
Plant response rating (scale of 0 to 100 where 0 is no effect and 100 is complete control) (galium; 125 g ai/ha): 80
Plant response rating (scale of 0 to 100 where 0 is no effect and 100 is complete control) (galium; 250 g ai/ha): 95
Plant response rating, Foxtail, Giant (foxtail, giant [6]; 125 g ai/ha): 70
Plant response rating, Foxtail, Giant (foxtail, giant [6]; 500 g ai/ha): 90
Plant response rating, Barnyardgrass (barnyardgrass [7]; 125 g ai/ha): 30
Plant response rating, Barnyardgrass (barnyardgrass [7]; 500 g ai/ha): 70
Plant response rating, Barnyardgrass, Flood (barnyardgrass [8]): 30
